pIC50: −log10 of the molar value.
Experiments:
Histamine H2 receptor = Histamine H2 receptor (Rattus norvegicus, UniProt P25102); assay: Antagonistic activity by inhibition histamine H2 receptor from rats.; type: functional; settings: read-out: pA2 (converted)
[1] = molecular target: T1, Gastrin/cholecystokinin type B receptor (Mus musculus, UniProt P56481); assay: Inhibitory activity against Cholecystokinin type B receptor
T1 sequence (P56481 whole entry): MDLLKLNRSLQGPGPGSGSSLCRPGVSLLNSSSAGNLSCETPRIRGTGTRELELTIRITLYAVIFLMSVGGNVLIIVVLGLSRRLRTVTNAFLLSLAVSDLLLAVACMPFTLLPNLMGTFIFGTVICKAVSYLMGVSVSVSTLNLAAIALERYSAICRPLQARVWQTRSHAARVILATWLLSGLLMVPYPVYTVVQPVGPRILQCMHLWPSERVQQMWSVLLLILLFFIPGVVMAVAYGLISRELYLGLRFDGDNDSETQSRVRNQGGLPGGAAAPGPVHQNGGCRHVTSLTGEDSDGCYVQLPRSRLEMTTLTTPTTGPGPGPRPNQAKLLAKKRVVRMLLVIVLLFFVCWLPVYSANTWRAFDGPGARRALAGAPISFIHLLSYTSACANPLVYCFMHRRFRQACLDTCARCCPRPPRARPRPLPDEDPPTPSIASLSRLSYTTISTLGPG

[2] = molecular target: T2, Cholecystokinin receptor type A (Mus musculus, UniProt O08786); assay: Inhibitory activity against Cholecystokinin type A receptor
T2 sequence (O08786 whole entry): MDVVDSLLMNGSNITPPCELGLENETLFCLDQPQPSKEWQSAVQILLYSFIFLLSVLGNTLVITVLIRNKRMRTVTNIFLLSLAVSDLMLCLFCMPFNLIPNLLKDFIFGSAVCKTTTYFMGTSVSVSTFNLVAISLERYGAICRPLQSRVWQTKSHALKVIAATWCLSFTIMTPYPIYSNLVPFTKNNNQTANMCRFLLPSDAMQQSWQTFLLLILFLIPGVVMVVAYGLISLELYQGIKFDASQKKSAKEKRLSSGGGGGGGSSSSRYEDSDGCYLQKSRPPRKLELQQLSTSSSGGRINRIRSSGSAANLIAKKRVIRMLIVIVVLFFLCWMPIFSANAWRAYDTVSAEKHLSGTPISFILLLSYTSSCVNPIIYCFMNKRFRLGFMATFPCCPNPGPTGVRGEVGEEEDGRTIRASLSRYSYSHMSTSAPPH

[3] = molecular target: Cholecystokinin receptor (Mus musculus) (UniProt O08786+P56481); assay: Ratio of IC50(gastrin) to IC50(CCK-A); type: protein assay

Histamine H2 receptor, sequence (P25102 whole entry): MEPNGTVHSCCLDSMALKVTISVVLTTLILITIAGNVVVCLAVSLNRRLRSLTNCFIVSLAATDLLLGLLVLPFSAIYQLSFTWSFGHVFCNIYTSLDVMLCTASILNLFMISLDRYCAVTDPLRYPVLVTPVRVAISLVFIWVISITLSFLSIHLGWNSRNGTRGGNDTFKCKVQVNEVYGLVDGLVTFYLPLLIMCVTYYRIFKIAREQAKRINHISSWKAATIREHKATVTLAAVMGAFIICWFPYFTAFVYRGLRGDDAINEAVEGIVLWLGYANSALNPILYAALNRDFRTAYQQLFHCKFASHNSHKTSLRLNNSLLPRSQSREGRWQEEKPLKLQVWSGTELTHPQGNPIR

Kb (Histamine H2 receptor)	pIC50 [1]	pIC50 [2]	Ratio [3]	Structure (SMILES)
50.1 nM	–	–	–	CC(C)(C)OC(=O)NCCCC(=O)NCCSCc1csc(N=C(N)N)n1
3160 nM	6.03	5.36	289	Cc1cccc(NC(=O)N[C@@H]2N=C(c3ccccc3)c3ccccc3N(CCOC(=O)NCCCC(=O)NCCSCc3csc(N=C(N)N)n3)C2=O)c1
1260 nM	7.03	5.38	156	CN1C(=O)[C@H](NC(=O)Nc2cccc(CCOC(=O)NCCC(=O)NCCCOc3cccc(CN4CCCCC4)c3)c2)N=C(c2ccccc2)c2ccccc21
15.8 nM	–	–	–	CC(C)(C)OC(=O)NCCCC(=O)NCCCOc1cccc(CN2CCCCC2)c1
316 nM	6.40	5.78	183	CN1C(=O)[C@H](NC(=O)Nc2cccc(COC(=O)NCCCN3CCN(C(=O)CNCCCOc4cccc(CN5CCCCC5)c4)CC3)c2)N=C(c2ccccc2)c2ccccc21
1000 nM	5.40	5.34	34	Cc1cccc(NC(=O)N[C@@H]2N=C(c3ccccc3)c3ccccc3N(CCOC(=O)NCCCC(=O)NCCCOc3cccc(CN4CCCCC4)c3)C2=O)c1
631 nM	7.35	6.13	106	CN1C(=O)[C@H](NC(=O)Nc2cccc(COC(=O)NCCN3CCN(C(=O)CNCCCOc4cccc(CN5CCCCC5)c4)CC3)c2)N=C(c2ccccc2)c2ccccc21
794 nM	6.70	5.21	555	CN1C(=O)[C@H](NC(=O)Nc2cccc(COC(=O)NCC(=O)NCCCOc3cccc(CN4CCCCC4)c3)c2)N=C(c2ccccc2)c2ccccc21
794 nM	6.52	5.89	35	CN1C(=O)[C@H](NC(=O)Nc2cccc(CCOC(=O)NCCCC(=O)NCCSCc3csc(N=C(N)N)n3)c2)N=C(c2ccccc2)c2ccccc21

Structure (SMILES)	Kb (Histamine H2 receptor)	pIC50 [1]	pIC50 [2]	Ratio [3]
CN1C(=O)[C@H](NC(=O)Nc2cccc(COC(=O)NCCC(=O)NCCCOc3cccc(CN4CCCCC4)c3)c2)N=C(c2ccccc2)c2ccccc21	316 nM	6.80	6.51	9
CN1C(=O)[C@H](NC(=O)Nc2cccc(COC(=O)NCCCC(=O)NCCCOc3cccc(CN4CCCCC4)c3)c2)N=C(c2ccccc2)c2ccccc21	251 nM	7.19	5.44	138
CN1C(=O)[C@H](NC(=O)Nc2cccc(COC(=O)NCCNC(=O)CC(=O)NCCCOc3cccc(CN4CCCCC4)c3)c2)N=C(c2ccccc2)c2ccccc21	158 nM	6.99	5.09	432
CN1C(=O)[C@H](NC(=O)Nc2cccc(CCOC(=O)NCCCC(=O)NCCCOc3cccc(CN4CCCCC4)c3)c2)N=C(c2ccccc2)c2ccccc21	398 nM	6.74	5.30	217
Cc1cccc(NC(=O)N[C@@H]2N=C(c3cccc(OC(=O)NCCCC(=O)NCCCOc4cccc(CN5CCCCC5)c4)c3)c3ccccc3N(C)C2=O)c1	501 nM	6.34	5.42	17

Reference: ChEMBL document CHEMBL1129101 (Bioorg Med Chem Lett, 1996)
